Measured values from US20240381872A1, “SUBSTITUTED 2,3-DIHYDRO[1,3]THIAZOLO[4,5-B]PYRIDINES, SALTS THEREOF AND THEIR USE AS HERBICIDALLY ACTIVE SUBSTANCES” (BAYER AKTIENGESELLSCHAFT, priority 2021, published 2024).

Tests used:
Assay type in all cases: in vivo
Stellaria media (STEME) [1] = assay: Herbicidal pre-emergence action, section A (Table A9)
Source text: (§1) Seeds of mono- and dicotyledonous weed plants were sown in plastic pots (double sowings with one species of mono- and one species of dicotyledonous weed plants per pot), in sandy loam, and covered with soil. The compounds according to the invention, formulated in the form of wettable powders (WP) or as emulsifiable concentrates (EC), were applied to the surface of the covering soil as aqueous suspension or emulsion, with the addition of 0.5% of an additive, at an application rate of 600 l of water per hectare (converted). Following treatment, the pots were placed in a greenhouse and kept under optimum growth conditions for the test plants. The visual grading of the damage to the test plants was carried out after ca. 3 weeks in comparison to untreated controls (herbicidal effect in percent (%): 100% effect=plants have died off, 0% effect=as control plants).

[2] = test system: Alopecurus myosuroides (ALOMY); assay: Herbicidal pre-emergence action, section A (Table A2); conditions: application rate 1280 g/ha; visual grading after ca. 3 weeks vs untreated controls
Source text: as §1

Kochia scoparia (KCHSC) [3] = assay: Herbicidal pre-emergence action, section A (Table A4); conditions: visual grading after ca. 3 weeks vs untreated controls
Source text: as §1

[4] = test system: Matricaria inodora (MATIN); assay: Herbicidal pre-emergence action, section A (Table A6); conditions: visual grading after ca. 3 weeks vs untreated controls
Source text: as §1

[5] = test system: Echinochloa crus-galli (ECHCG); assay: Herbicidal pre-emergence action, section A (Table A3); conditions: application rate 1280 g/ha; visual grading after ca. 3 weeks vs untreated controls
Source text: as §1

Veronica persica (VERPE) [6] = assay: Herbicidal pre-emergence action, section A (Table A10)
Source text: as §1

[7] = test system: Digitaria sanguinalis (DIGSA); assay: Herbicidal pre-emergence action, section A (Table A12)
Source text: as §1

Setaria viridis (SETVI) [8] = assay: Herbicidal pre-emergence action, section A (Table A8)
Source text: as §1

[9] = test system: Amaranthus retroflexus (AMARE); assay: Herbicidal pre-emergence action, section A (Table A11)
Source text: as §1

Poa annua (POAAN) = assay: Herbicidal pre-emergence action, section A (Table A7); conditions: visual grading after ca. 3 weeks vs untreated controls
Source text: as §1

Veronica persica (VERPE) [10] = assay: Herbicidal post-emergence action, section B (Table B10); conditions: application rate 1280 g/ha; visual rating about 3 weeks after treatment vs untreated controls
Experimental: (§2) Seeds of mono- and dicotyledonous weed plants were placed in plastic pots in sandy loam soil (doubly sown with in each case one species of mono- or dicotyledonous weed plants per pot), covered with soil and cultivated in a greenhouse under controlled growth conditions. 2 to 3 weeks after sowing, the test plants were treated at the one-leaf stage. The compounds of the invention, formulated in the form of wettable powders (WP) or as emulsion concentrates (EC), were applied onto the green parts of the plants as aqueous suspension or emulsion with addition of 0.5% additive at a water application rate of 600 liters per hectare (converted). After the test plants had been kept in the greenhouse under optimum growth conditions for about 3 weeks, the activity of the preparations was rated visually in comparison to untreated controls. For example, 100% activity=the plants have died, 0% activity=like control plants.

Lolium rigidum (LOLRI) = assay: Herbicidal pre-emergence action, section A (Table A5); conditions: visual grading after ca. 3 weeks vs untreated controls
Source text: as §1

Kochia scoparia (KCHSC) [11] = assay: Herbicidal post-emergence action, section B (Table B4); conditions: application rate 1280 g/ha; visual rating about 3 weeks after treatment vs untreated controls
Experimental: as §2

[12] = test system: Echinochloa crus-galli (ECHCG); assay: Herbicidal post-emergence action, section B (Table B3); conditions: rated visually after about 3 weeks
Experimental: as §2

Stellaria media (STEME) [13] = assay: Herbicidal post-emergence action, section B (Table B9); conditions: application rate 1280 g/ha; visual rating about 3 weeks after treatment vs untreated controls
Experimental: as §2

[14] = test system: Amaranthus retroflexus (AMARE); assay: Herbicidal post-emergence action, section B (Table B11); conditions: application rate 1280 g/ha; visual rating about 3 weeks after treatment vs untreated controls
Experimental: as §2

Setaria viridis (SETVI) [15] = assay: Herbicidal post-emergence action, section B (Table B8); conditions: application rate 1280 g/ha; visual rating about 3 weeks after treatment vs untreated controls
Experimental: as §2

SMILES | pre-emergence activity against STEME in % (Stellaria media (STEME) [1]; application rate 320 g/ha) | pre-emergence activity against KCHSC in % (Kochia scoparia (KCHSC) [3]; application rate 320 g/ha) | pre-emergence activity against ECHCG in % [5] | pre-emergence activity against DIGSA in % ([7]; application rate 320 g/ha) | pre-emergence activity against SETVI in % (Setaria viridis (SETVI) [8]; application rate 320 g/ha) | pre-emergence activity against AMARE in % ([9]; application rate 320 g/ha) | pre-emergence activity against POAAN in % (Poa annua (POAAN); application rate 320 g/ha) | post-emergence activity against VERPE in % (Veronica persica (VERPE) [10]) | pre-emergence activity against LOLRI in % (Lolium rigidum (LOLRI); application rate 320 g/ha) | post-emergence activity against KCHSC in % (Kochia scoparia (KCHSC) [11]) | pre-emergence activity against VERPE in % (Veronica persica (VERPE) [6]; application rate 1280 g/ha) | pre-emergence activity against SETVI in % (Setaria viridis (SETVI) [8]; application rate 1280 g/ha) | pre-emergence activity against AMARE in % ([9]; application rate 1280 g/ha) | pre-emergence activity against POAAN in % (Poa annua (POAAN); application rate 1280 g/ha) | pre-emergence activity against KCHSC in % (Kochia scoparia (KCHSC) [3]; application rate 1280 g/ha) | post-emergence activity against STEME in % (Stellaria media (STEME) [13]) | post-emergence activity against AMARE in % [14] | pre-emergence activity against MATIN in % ([4]; application rate 1280 g/ha) | other results
CC(=O)N1CSc2cc(C)c(-c3cc(F)ccc3F)nc21 [Example I-168] | 90% | 90% | 100% | 100% | 100% | 90% | 100% | 90% | 90% | 90% | – | – | – | – | – | – | – | – | pre-emergence activity against ALOMY in % [2]: 90%; pre-emergence activity against MATIN in % ([4]; application rate 320 g/ha): 90%; pre-emergence activity against VERPE in % (Veronica persica (VERPE) [6]; application rate 320 g/ha): 90%
CCCS(=O)(=O)N1CSc2cc(C)c(-c3cccc(Cl)c3F)nc21 [Example I-112] | – | – | – | – | – | – | – | – | – | – | 90% | 90% | 90% | 100% | – | – | – | – | post-emergence activity against ECHCG in % ([12]; application rate 320 g/ha): 100%; pre-emergence activity against STEME in % (Stellaria media (STEME) [1]; application rate 1280 g/ha): 90%
COC(=O)CCC(=O)N1CSc2cc(C)c(-c3ccc(F)cc3F)nc21 [Example I-084] | – | – | 100% | – | 100% | – | 100% | 90% | – | 90% | – | – | 90% | – | 90% | 90% | 90% | – | pre-emergence activity against DIGSA in % ([7]; application rate 1280 g/ha): 100%; pre-emergence activity against LOLRI in % (Lolium rigidum (LOLRI); application rate 1280 g/ha): 100%
COC(=O)CCC(=O)N1CSc2cc(C)c(-c3cccc(F)c3F)nc21 [Example I-153] | 90% | 90% | 90% | 90% | – | 90% | – | – | 90% | – | 90% | 100% | – | 100% | – | 90% | – | 90% | post-emergence activity against SETVI in % (Setaria viridis (SETVI) [15]): 90%
CCOC(=O)c1cc2c(nc1-c1ccccc1F)NCS2 [Example I-004] | – | – | 100% | – | – | – | – | 90% | – | 90% | – | 100% | – | 100% | 90% | – | 100% | 90% | post-emergence activity against ECHCG in % ([12]; application rate 1280 g/ha): 90%
